We go through 23 compounds from patent US9808003B2, “Herbicidally active 2-(substituted-phenyl)-cyclopentane-1,3-dione compounds and derivatives thereof” (Syngenta Limited, priority 2013, dated 2017).

What all share (assay): Test 1A glasshouse assay, post-emergence herbicidal activity
Assay type in all cases: in vivo

One assay deals with Lolium perenne (LOLPE). To be noted: Lolium perenne, 312 h, application rate 250 g/ha, 13 days after application, visual (100%=total damage; 0%=no damage), read-out: Post-emergence Herbicidal Activity (% Phytotoxicity) LOLPE. The method in brief: (§1)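 Post-emergence spray at 8 d after sowing; vehicle acetone/water 50:50 + 0.5% Tween 20. Glasshouse 24/16 °C, 14 h light, 65% RH, watered 2×/day. Visual phytotoxicity (%) at 13 DAA.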

The subject of assay [1] is Echinochloa crus-galli (ECHCG). To be noted: Echinochloa crus-galli, 312 h, application rate 250 g/ha, 13 days after application, visual (100%=total damage; 0%=no damage), read-out: Post-emergence Herbicidal Activity (% Phytotoxicity) ECHCG. The method in brief: as §1
Assay [2] concerns Alopecurus myosuroides (ALOMY). To be noted: application rate 250 g/ha, 13 days after application, visual (100%=total damage; 0%=no damage); for pest or weed control at 250 g/ha: Alopecurus myosuroides, 312 h, read-out: Post-emergence Herbicidal Activity (% Phytotoxicity) ALOMY. A digest of the protocol:
as §1

Another assay relates to Avena fatua (AVEFA). To be noted: Avena fatua, 312 h, application rate 250 g/ha, 13 days after application, visual (100%=total damage; 0%=no damage), read-out: Post-emergence Herbicidal Activity (% Phytotoxicity) AVEFA. A digest of the protocol: as §1

Regarding `Cc1cc(C)c(C2C(=O)CC(CCNC(=O)c3cc(C4CC4)on3)C2=O)c(C)c1` (stereo not drawn) [Compound A162], the pest or weed control at 250 g/ha in the assay on Lolium perenne (LOLPE) amounted to 100%; in assay [1], 90%; in assay [2] it was 70%; with Avena fatua (AVEFA), 90%.

For `Cc1cc(C)c(C2C(=O)CC(CCNC(=O)c3nnsc3C)C2=O)c(C)c1` (stereo not drawn) [Compound A164], the pest or weed control at 250 g/ha worked out at 90% in the assay on Lolium perenne (LOLPE), 100% in assay [1], 90% in assay [2] and 100% with Avena fatua (AVEFA).

`O=C(NCCC1CC(=O)C(c2c(Cl)cc(-c3ccc(F)cc3)cc2Cl)C1=O)c1cccc(F)n1` (stereo not drawn) [Compound A165]: the pest or weed control at 250 g/ha amounted to 100% in the assay on Lolium perenne (LOLPE), 100% in assay [1], 90% in assay [2] and 100% in the assay on Avena fatua (AVEFA).

For `Cc1cc(C)c(C2C(=O)CC(CCNC(=O)c3ccc(F)nc3F)C2=O)c(C)c1` (stereo not drawn) [Compound A166], the pest or weed control at 250 g/ha in the assay with Lolium perenne (LOLPE) amounted to 90%; in assay [1] it was 60%; in assay [2] it was 80%; in the assay on Avena fatua (AVEFA), 90%.

`Cc1cc(C)c(C2C(=O)CC(CCNC(=O)c3ccc(C)nc3Cl)C2=O)c(C)c1` (stereo not drawn) [Compound A167]: the pest or weed control at 250 g/ha with Lolium perenne (LOLPE) was 70%; in assay [1], 90%; in assay [2], 60%; with Avena fatua (AVEFA) it was 30%.

Turning to `Cc1cc(C)c(C2C(=O)CC(CCNC(=O)c3cccnc3Br)C2=O)c(C)c1` (stereo not drawn) [Compound A168], the pest or weed control at 250 g/ha in the assay with Lolium perenne (LOLPE) amounted to 70%; in assay [1], 80%; in assay [2] it was 60%; in the assay with Avena fatua (AVEFA) it was 80%.

`Cc1cc(-n2cc(Cl)nn2)cc(C)c1C1C(=O)CC(CCNC(=O)c2ccccn2)C1=O` (stereo not drawn) [Compound A170, N-[2-[3-[4-(4-chlorotriazol-1-yl)-2,6-dimethyl-phenyl]-2,4-dioxo-cyclopentyl]ethyl]pyridine-2-carboxamide]: the pest or weed control at 250 g/ha with Lolium perenne (LOLPE) stood at 90%; in assay [1], 100%; in assay [2] it was 90%; with Avena fatua (AVEFA), 100%. The “Post-emergence Herbicidal Activity (% Phytotoxicity) ALOMY” value in assay [2] was found to be 90%.

Consider `Cc1cc(-n2ccnn2)cc(C)c1C1C(=O)CC(CCNC(=O)c2ccccn2)C1=O` (stereo not drawn) [Compound A171], for which the pest or weed control at 250 g/ha was found to be 10% with Lolium perenne (LOLPE), 60% in assay [1], 0% in assay [2] and 10% in the assay on Avena fatua (AVEFA).

Turning to `Cc1cc(C)c(C2C(=O)CC(CCNC(=O)c3sc(C(F)(F)F)nc3C(F)(F)F)C2=O)c(C)c1` (stereo not drawn) [Compound A172], the pest or weed control at 250 g/ha with Lolium perenne (LOLPE) stood at 100%; in assay [1] it was 100%; in assay [2], 90%; in the assay on Avena fatua (AVEFA) it was 90%.

With `Cc1cc(C)c(C2C(=O)CC(CCNC(=O)c3cc(C(F)(F)F)nn3C)C2=O)c(C)c1` (stereo not drawn) [Compound A173], the pest or weed control at 250 g/ha (with Lolium perenne (LOLPE); in assay [1]; in assay [2]; in the assay with Avena fatua (AVEFA)) was 100% each time.

Take `COCc1nc(C2CC2)c(C(=O)NCCC2CC(=O)C(c3c(C)cc(C)cc3C)C2=O)s1` (stereo not drawn) [Compound A174]: the pest or weed control at 250 g/ha in the assay on Lolium perenne (LOLPE) was found to be 100%; in assay [1], 90%; in assay [2], 90%; in the assay on Avena fatua (AVEFA) it was 100%.

Turning to `Cc1cc(C)c(C2C(=O)CC(CCNC(=O)c3nn(C)c(C)c3Cl)C2=O)c(C)c1` (stereo not drawn) [Compound A177], the pest or weed control at 250 g/ha came out at 90% in the assay with Lolium perenne (LOLPE), 100% in assay [1], 100% in assay [2] and 90% with Avena fatua (AVEFA).

With `Cc1cc(C)c(C2C(=O)CC(CCNC(=O)c3oc(C)nc3C)C2=O)c(C)c1` (stereo not drawn) [Compound A178], the pest or weed control at 250 g/ha in the assay on Lolium perenne (LOLPE) is 100%; in assay [1] it was 80%; in assay [2], 70%; in the assay with Avena fatua (AVEFA) it was 90%.

With `Cc1cc(C)c(C2C(=O)CC(CCNC(=O)c3c(C)noc3C)C2=O)c(C)c1` (stereo not drawn) [Compound A179], the pest or weed control at 250 g/ha is 70% in the assay with Lolium perenne (LOLPE), 80% in assay [1], 70% in assay [2] and 100% in the assay on Avena fatua (AVEFA).

Take `Cc1cc(C)c(C2C(=O)CC(CCNC(=O)c3snnc3C)C2=O)c(C)c1` (stereo not drawn) [Compound A180]: the pest or weed control at 250 g/ha with Lolium perenne (LOLPE) turned out to be 80%; in assay [1], 90%; in assay [2] it was 70%; in the assay with Avena fatua (AVEFA), 80%.

For `Cc1cc(C)c(C2C(=O)CC(CCNC(=O)c3ocnc3C)C2=O)c(C)c1` (stereo not drawn) [Compound A181], the pest or weed control at 250 g/ha amounted to 90% with Lolium perenne (LOLPE), 80% in assay [1], 80% in assay [2] and 100% in the assay with Avena fatua (AVEFA).

In the case of `Cc1cc(C)c(C2C(=O)CC(CCNC(=O)c3nc(C)sc3C)C2=O)c(C)c1` (stereo not drawn) [Compound A182], the pest or weed control at 250 g/ha in the assay with Lolium perenne (LOLPE) turned out to be 80%; in assay [1], 90%; in assay [2], 80%; in the assay with Avena fatua (AVEFA) it was 90%.

As to `Cc1cc(C)c(C2C(=O)CC(CCNC(=O)c3sc(C)nc3C(F)F)C2=O)c(C)c1` (stereo not drawn) [Compound A183], the pest or weed control at 250 g/ha in the assay on Lolium perenne (LOLPE) amounted to 90%; in assay [1] it was 90%; in assay [2], 60%; with Avena fatua (AVEFA), 60%.

As to `Cc1cc(-c2ccccc2Cl)cc(C)c1C1C(=O)CC(CCNC(=O)c2ccccn2)C1=O` (stereo not drawn) [Compound A184], the pest or weed control at 250 g/ha in the assay with Lolium perenne (LOLPE) worked out at 60%; in assay [1] it was 90%; in assay [2], 10%; in the assay with Avena fatua (AVEFA) it was 20%.

With `Cc1cc(C)c(C2C(=O)CC(CCNC(=O)c3ncc(Br)cc3F)C2=O)c(C)c1` (stereo not drawn) [Compound A185], the pest or weed control at 250 g/ha with Lolium perenne (LOLPE) amounted to 100%; in assay [1], 100%; in assay [2], 90%; in the assay on Avena fatua (AVEFA), 100%.

As for `Cc1cc(C)c(C2C(=O)CC(CCNC(=O)c3ccc(F)c(Br)n3)C2=O)c(C)c1` (stereo not drawn) [Compound A186], the pest or weed control at 250 g/ha amounted to 100% in the assay with Lolium perenne (LOLPE), 100% in assay [1], 100% in assay [2] and 90% in the assay with Avena fatua (AVEFA).

`Cc1cc(C)c(C2C(=O)CC(CCNC(=O)c3ncc(F)cc3Br)C2=O)c(C)c1` (stereo not drawn) [Compound A187]: the pest or weed control at 250 g/ha in the assay with Lolium perenne (LOLPE) came to 100%; in assay [1] it was 100%; in assay [2], 90%; with Avena fatua (AVEFA), 90%.

As for `Cc1cc(C)c(C2C(=O)CC(CCNC(=O)c3ccc(OC(F)F)cn3)C2=O)c(C)c1` (stereo not drawn) [Compound A188], the pest or weed control at 250 g/ha (in the assay on Lolium perenne (LOLPE); in assay [1]; in assay [2]; with Avena fatua (AVEFA)) was 100% throughout.
